# Assay results from PubChem BioAssay AID2060894 (Molecular Pharmacology Branch, DTP, NCI, 2025).
# Test system: K12877-001-R-J1-PDC complex spheroid viability
# Assay: Anticancer human tumor K12877-001-R-J1-PDC patient-derived lung adenocarcinoma cell line growth inhibition [RAS]
# Conditions: for IC50: curve of first compound; for viability, T/C: stronger effect = lower value
# In short: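 Agents were tested in combination matrices in half-log decrements from a top concentration at or near clinical Cmax (10 microM if undetermined). Targets were multi-cell spheroids of tumour lines plus HUVEC and MSC stromal cells.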
# [1] = second compound 0.0316 µM, first compound 0.0316 µM
# [2] = second compound 0.0316 µM, first compound 0.1 µM
# [3] = second compound 0.0316 µM, first compound 0.316 µM
# [4] = second compound 0.0316 µM, first compound 1 µM
# [5] = second compound 0.0316 µM, first compound 3.16 µM
# [6] = second compound 0.0316 µM, first compound 10 µM
# [7] = second compound 0.1 µM, first compound 0.0316 µM
# [8] = second compound 0.1 µM, first compound 0.1 µM
# [9] = second compound 0.1 µM, first compound 0.316 µM
# [10] = second compound 0.1 µM, first compound 1 µM
# [11] = second compound 0.1 µM, first compound 3.16 µM
# [12] = second compound 0.1 µM, first compound 10 µM
# [13] = second compound 0.316 µM, first compound 0.0316 µM
# [14] = second compound 0.316 µM, first compound 0.1 µM
# [15] = second compound 0.316 µM, first compound 0.316 µM
# [16] = second compound 0.316 µM, first compound 1 µM
# [17] = second compound 0.316 µM, first compound 3.16 µM
# [18] = second compound 0.316 µM, first compound 10 µM
# [19] = second compound 1 µM, first compound 0.0316 µM
# [20] = second compound 1 µM, first compound 0.1 µM
# [21] = second compound 1 µM, first compound 0.316 µM
# [22] = second compound 1 µM, first compound 1 µM
# [23] = second compound 1 µM, first compound 3.16 µM
# [24] = second compound 1 µM, first compound 10 µM
# [25] = second compound 3.16 µM, first compound 0.0316 µM
# [26] = second compound 3.16 µM, first compound 0.1 µM
# [27] = second compound 3.16 µM, first compound 0.316 µM
# [28] = second compound 3.16 µM, first compound 1 µM
# [29] = second compound 3.16 µM, first compound 3.16 µM
# [30] = second compound 3.16 µM, first compound 10 µM
# [31] = second compound 10 µM, first compound 0.0316 µM
# [32] = second compound 10 µM, first compound 0.1 µM
# [33] = second compound 10 µM, first compound 0.316 µM
# [34] = second compound 10 µM, first compound 1 µM
# [35] = second compound 10 µM, first compound 3.16 µM
# [36] = second compound 10 µM, first compound 10 µM
# 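Further: spheroids exposed to agents for one week before readout.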
# 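Wherever viability, T/C is given: tumour cells co-cultured with HUVEC and mesenchymal stem cells in spheroids.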
compound,measurement,setting,value
CC1(O)CCCC1n1c(=O)c(C(F)F)cc2cnc(NC3CCN(S(C)(=O)=O)CC3)nc21 (stereo unspecified) + C#Cc1c(F)ccc2cc(O)cc(-c3ncc4c(N5CC6CCC(C5)N6)nc(OCC56CCCN5CC(F)C6)nc4c3F)c12,IC50,second compound 0.0316 µM,3.31 µM
same,IC50,second compound 0.1 µM,3.06 µM
same,IC50,second compound 0.316 µM,3.92 µM
same,IC50,second compound 1 µM,3.97 µM
same,IC50,second compound 3.16 µM,4.16 µM
same,IC50,second compound 10 µM,3.48 µM
same,"viability, T/C",[1],98.5%
same,"viability, T/C",[2],115%
same,"viability, T/C",[3],77.2%
same,"viability, T/C",[4],72.1%
same,"viability, T/C",[5],60.9%
same,"viability, T/C",[6],3.3%
same,"viability, T/C",[7],112%
same,"viability, T/C",[8],115%
same,"viability, T/C",[9],87.7%
same,"viability, T/C",[10],66%
same,"viability, T/C",[11],62.7%
same,"viability, T/C",[12],3.47%
same,"viability, T/C",[13],119%
same,"viability, T/C",[14],104%
same,"viability, T/C",[15],85.3%
same,"viability, T/C",[16],81.1%
same,"viability, T/C",[17],72.3%
same,"viability, T/C",[18],3.03%
same,"viability, T/C",[19],106%
same,"viability, T/C",[20],106%
same,"viability, T/C",[21],84.7%
same,"viability, T/C",[22],83%
same,"viability, T/C",[23],67.2%
same,"viability, T/C",[24],3.27%
same,"viability, T/C",[25],120%
same,"viability, T/C",[26],93.1%
same,"viability, T/C",[27],93.3%
same,"viability, T/C",[28],80%
same,"viability, T/C",[29],74.1%
same,"viability, T/C",[30],3.16%
same,"viability, T/C",[31],92%
same,"viability, T/C",[32],87%
same,"viability, T/C",[33],71.6%
same,"viability, T/C",[34],76.9%
same,"viability, T/C",[35],56.3%
same,"viability, T/C",[36],2.77%
CCC(CC)c1cc(NC2CCC(N)C2)n2nccc2n1 (stereo unspecified) + C#Cc1c(F)ccc2cc(O)cc(-c3ncc4c(N5CC6CCC(C5)N6)nc(OCC56CCCN5CC(F)C6)nc4c3F)c12,IC50,second compound 0.0316 µM,1.54 µM
same,IC50,second compound 0.1 µM,1.69 µM
same,IC50,second compound 0.316 µM,1.62 µM
same,IC50,second compound 1 µM,1.81 µM
same,IC50,second compound 3.16 µM,1.58 µM
same,IC50,second compound 10 µM,1.45 µM
same,"viability, T/C",[1],89.6%
same,"viability, T/C",[2],99.2%
same,"viability, T/C",[3],91.7%
same,"viability, T/C",[4],78.1%
same,"viability, T/C",[5],2.8%
same,"viability, T/C",[6],1.63%
same,"viability, T/C",[7],107%
same,"viability, T/C",[8],92.8%
same,"viability, T/C",[9],103%
same,"viability, T/C",[10],89.6%
same,"viability, T/C",[11],2.62%
same,"viability, T/C",[12],1.37%
same,"viability, T/C",[13],114%
same,"viability, T/C",[14],111%
same,"viability, T/C",[15],93.4%
same,"viability, T/C",[16],83.6%
same,"viability, T/C",[17],3.3%
same,"viability, T/C",[18],1.42%
same,"viability, T/C",[19],102%
same,"viability, T/C",[20],88.8%
same,"viability, T/C",[21],105%
same,"viability, T/C",[22],102%
same,"viability, T/C",[23],2.94%
same,"viability, T/C",[24],1.04%
same,"viability, T/C",[25],109%
same,"viability, T/C",[26],105%
same,"viability, T/C",[27],103%
same,"viability, T/C",[28],81.1%
same,"viability, T/C",[29],2.74%
same,"viability, T/C",[30],1.05%
same,"viability, T/C",[31],102%
same,"viability, T/C",[32],86.2%
same,"viability, T/C",[33],93.3%
same,"viability, T/C",[34],72.4%
same,"viability, T/C",[35],2.41%
same,"viability, T/C",[36],1.21%
Cc1nc(N2CCC3(CC2)COC(C)C3N)c(CO)nc1Sc1ccnc(N)c1Cl (stereo unspecified) + C#Cc1c(F)ccc2cc(O)cc(-c3ncc4c(N5CC6CCC(C5)N6)nc(OCC56CCCN5CC(F)C6)nc4c3F)c12,IC50,second compound 0.0316 µM,> 10 µM
same,IC50,second compound 0.1 µM,> 10 µM
same,IC50,second compound 0.316 µM,> 10 µM
same,IC50,second compound 1 µM,> 10 µM
same,IC50,second compound 3.16 µM,> 10 µM
same,IC50,second compound 10 µM,> 10 µM
same,"viability, T/C",[1],94.3%
same,"viability, T/C",[2],97%
same,"viability, T/C",[3],99%
same,"viability, T/C",[4],95.1%
same,"viability, T/C",[5],103%
same,"viability, T/C",[6],77.5%
same,"viability, T/C",[7],109%
same,"viability, T/C",[8],110%
same,"viability, T/C",[9],92%
same,"viability, T/C",[10],87.7%
same,"viability, T/C",[11],93.5%
same,"viability, T/C",[12],84.1%
same,"viability, T/C",[13],107%
same,"viability, T/C",[14],98.8%
same,"viability, T/C",[15],91.2%
same,"viability, T/C",[16],92.9%
same,"viability, T/C",[17],78.5%
same,"viability, T/C",[18],65.7%
same,"viability, T/C",[19],101%
same,"viability, T/C",[20],92.5%
same,"viability, T/C",[21],93.1%
same,"viability, T/C",[22],95.7%
same,"viability, T/C",[23],82.9%
same,"viability, T/C",[24],69.5%
same,"viability, T/C",[25],100%
same,"viability, T/C",[26],94%
same,"viability, T/C",[27],92.4%
same,"viability, T/C",[28],79.7%
same,"viability, T/C",[29],79.7%
same,"viability, T/C",[30],69.7%
same,"viability, T/C",[31],93.6%
same,"viability, T/C",[32],86.1%
same,"viability, T/C",[33],83.9%
same,"viability, T/C",[34],83.4%
same,"viability, T/C",[35],86.9%
same,"viability, T/C",[36],84.8%
